Experimental data taken from patent US20250009755A1, “COMPOSITIONS AND METHODS FOR THE TREATMENT OF OCULAR DISEASES AND INJURIES” (Ohio State Innovation Foundation, priority 2021, published 2025).

What was measured:
C5 = molecular target: T1, C5 (Homo sapiens, UniProt P01031); details: intravitreal injections, Phase 2/3 GATHER1; cited from earlier work
T1 construct: host or cells: endogenous C5 of study patients

C3 = molecular target: T2, C3 (Homo sapiens, UniProt P01024); details: intravitreal injection, Phase 2 FILLY; cited from earlier work
T2 construct: host or cells: endogenous C3 of study patients
T2 sequence (P01024 23-667 limits assumed): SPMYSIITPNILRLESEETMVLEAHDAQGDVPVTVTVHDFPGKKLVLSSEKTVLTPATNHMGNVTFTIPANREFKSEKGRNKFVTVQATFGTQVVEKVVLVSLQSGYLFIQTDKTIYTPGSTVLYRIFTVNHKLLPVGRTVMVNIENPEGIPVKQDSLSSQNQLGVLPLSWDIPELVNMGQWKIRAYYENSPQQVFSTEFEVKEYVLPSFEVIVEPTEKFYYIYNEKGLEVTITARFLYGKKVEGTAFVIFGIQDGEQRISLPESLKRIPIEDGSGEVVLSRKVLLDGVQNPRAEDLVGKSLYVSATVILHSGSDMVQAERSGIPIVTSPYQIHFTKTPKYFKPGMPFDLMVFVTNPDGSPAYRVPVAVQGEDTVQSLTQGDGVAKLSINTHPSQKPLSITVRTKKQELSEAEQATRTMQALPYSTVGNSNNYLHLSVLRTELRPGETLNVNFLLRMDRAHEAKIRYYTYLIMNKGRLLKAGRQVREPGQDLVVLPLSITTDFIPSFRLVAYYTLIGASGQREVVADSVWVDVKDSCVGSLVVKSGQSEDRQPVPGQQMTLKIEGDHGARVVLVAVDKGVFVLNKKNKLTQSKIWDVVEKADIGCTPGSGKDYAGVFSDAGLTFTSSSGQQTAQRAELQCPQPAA
T2 sequence (P01024 672-1663 partner limits assumed): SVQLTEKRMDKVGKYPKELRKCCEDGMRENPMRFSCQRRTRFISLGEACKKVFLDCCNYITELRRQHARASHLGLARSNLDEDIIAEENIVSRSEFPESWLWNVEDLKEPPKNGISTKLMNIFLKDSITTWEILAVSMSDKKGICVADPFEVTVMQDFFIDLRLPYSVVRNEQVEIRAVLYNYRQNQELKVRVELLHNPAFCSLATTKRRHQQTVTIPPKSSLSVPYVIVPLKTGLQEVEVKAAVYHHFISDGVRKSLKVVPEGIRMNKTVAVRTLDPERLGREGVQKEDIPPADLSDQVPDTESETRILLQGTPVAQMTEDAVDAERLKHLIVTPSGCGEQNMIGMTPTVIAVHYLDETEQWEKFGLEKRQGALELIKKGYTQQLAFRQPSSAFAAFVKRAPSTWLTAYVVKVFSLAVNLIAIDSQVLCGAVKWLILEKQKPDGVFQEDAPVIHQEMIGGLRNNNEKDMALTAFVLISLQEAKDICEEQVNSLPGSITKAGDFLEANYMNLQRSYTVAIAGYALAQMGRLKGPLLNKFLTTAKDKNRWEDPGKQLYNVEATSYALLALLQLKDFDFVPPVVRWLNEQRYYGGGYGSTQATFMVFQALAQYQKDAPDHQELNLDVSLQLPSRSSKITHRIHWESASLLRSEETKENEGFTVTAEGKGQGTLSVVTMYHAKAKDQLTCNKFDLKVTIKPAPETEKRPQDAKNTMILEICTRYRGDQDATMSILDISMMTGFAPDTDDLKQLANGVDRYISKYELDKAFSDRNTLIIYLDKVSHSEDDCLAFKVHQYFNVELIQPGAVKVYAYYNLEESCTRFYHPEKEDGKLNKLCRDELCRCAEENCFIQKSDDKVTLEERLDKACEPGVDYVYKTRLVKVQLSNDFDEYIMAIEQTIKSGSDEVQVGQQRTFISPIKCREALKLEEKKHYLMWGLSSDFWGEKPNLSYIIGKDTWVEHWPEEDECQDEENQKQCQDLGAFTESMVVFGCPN

VEGF-A = details: wet AMD patients; cited from earlier work
Chain of VEGF-A (P15692 207-311 limits assumed): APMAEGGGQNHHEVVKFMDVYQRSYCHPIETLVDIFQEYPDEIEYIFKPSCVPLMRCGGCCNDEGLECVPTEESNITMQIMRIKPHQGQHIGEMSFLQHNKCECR

[1] = cited from earlier work
HUVECs = assay: H2O2-induced tubule formation in HUVECs co-cultured with ARPE-19 cells (Calcein AM); type: cell-based, human; details: 200 μM H2O2; 10 μg/mL NPs or 5 μg/mL bevacizumab; vs positive control
Description: Under oxidative stress induced by 200 μM H2O2, ARPE-19 cells were co-cultured with human umbilical vein endothelial cells (HUVECs) to investigate the influence of H2O2 and drug-loaded PDA NPs on the development of the three-dimensional capillary structure. Exposure to H2O2 induced secretion of VEGF and tubule formation. Cells were then incubated with 5 μg/mL native bevacizumab control or 10 μg/mL NPs with and without anti-VEGF. […] The reaction of PDA NPs with H2O2 also simultaneously degraded (FIG. 6B) and triggered drug release (FIG. 7), favorable for spatiotemporal control of release at disease sites.

T1 sequence (P01031 19-673 limits assumed): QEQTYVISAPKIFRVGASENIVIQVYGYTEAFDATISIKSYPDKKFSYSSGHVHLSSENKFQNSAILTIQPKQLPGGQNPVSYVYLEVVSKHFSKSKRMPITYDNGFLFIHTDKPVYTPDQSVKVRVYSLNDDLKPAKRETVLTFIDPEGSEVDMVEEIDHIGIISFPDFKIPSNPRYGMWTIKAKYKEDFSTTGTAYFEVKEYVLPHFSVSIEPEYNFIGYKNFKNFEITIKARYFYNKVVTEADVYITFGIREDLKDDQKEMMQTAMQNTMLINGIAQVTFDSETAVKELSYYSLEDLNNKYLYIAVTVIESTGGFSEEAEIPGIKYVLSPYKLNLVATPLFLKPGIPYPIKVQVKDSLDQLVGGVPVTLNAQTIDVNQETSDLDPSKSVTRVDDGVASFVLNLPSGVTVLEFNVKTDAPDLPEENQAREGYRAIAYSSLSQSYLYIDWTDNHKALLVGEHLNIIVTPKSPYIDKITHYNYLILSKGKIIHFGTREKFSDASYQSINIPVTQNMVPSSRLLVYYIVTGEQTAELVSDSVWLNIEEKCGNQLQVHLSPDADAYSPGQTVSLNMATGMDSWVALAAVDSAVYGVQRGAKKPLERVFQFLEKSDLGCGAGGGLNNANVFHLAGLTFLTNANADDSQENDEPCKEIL
T1 sequence (P01031 678-1676 limits assumed): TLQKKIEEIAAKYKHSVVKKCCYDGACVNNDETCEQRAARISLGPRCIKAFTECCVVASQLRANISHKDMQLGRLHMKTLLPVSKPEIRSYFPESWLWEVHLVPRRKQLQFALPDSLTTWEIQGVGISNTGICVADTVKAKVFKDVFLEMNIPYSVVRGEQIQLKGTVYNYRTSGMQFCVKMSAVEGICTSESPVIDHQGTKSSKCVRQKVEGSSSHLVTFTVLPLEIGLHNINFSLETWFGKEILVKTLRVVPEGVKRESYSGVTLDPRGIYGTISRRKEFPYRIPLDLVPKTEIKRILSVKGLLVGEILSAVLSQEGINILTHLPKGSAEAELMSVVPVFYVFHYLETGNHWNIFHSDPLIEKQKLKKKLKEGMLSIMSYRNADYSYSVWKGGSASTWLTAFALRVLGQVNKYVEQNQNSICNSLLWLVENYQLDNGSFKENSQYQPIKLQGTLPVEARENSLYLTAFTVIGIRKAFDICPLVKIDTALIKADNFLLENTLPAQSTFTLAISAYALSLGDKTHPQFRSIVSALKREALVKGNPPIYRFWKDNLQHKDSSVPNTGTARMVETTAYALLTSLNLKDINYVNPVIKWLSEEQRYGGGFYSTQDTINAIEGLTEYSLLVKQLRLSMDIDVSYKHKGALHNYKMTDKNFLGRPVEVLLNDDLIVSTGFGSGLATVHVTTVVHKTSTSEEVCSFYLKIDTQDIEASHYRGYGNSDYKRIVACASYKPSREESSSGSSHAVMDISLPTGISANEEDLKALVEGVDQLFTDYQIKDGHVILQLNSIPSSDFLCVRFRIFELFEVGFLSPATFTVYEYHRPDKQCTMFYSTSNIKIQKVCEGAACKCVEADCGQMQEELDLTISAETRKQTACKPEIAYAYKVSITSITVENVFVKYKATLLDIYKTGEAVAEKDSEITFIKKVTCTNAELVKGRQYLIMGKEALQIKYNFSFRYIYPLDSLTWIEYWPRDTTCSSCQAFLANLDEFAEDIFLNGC

For avacincaptad pegol, the GA growth rate (C5) is given as “significantly reduced GA growth rate”.

In the case of pegcetacoplan, the GA growth rate (C3) is given as “significantly reduced GA growth rate”.

In the case of “RAN: monoclonal antibody fragment with strong affinity to VEGF-A”, the “patients with improved vision” value (VEGF-A) is given as 29%-40%.

In the case of `C=CC1=C(C)c2cc3[n-]c(cc4[n-]c(cc5nc(cc1n2)C(C)=C5C=C)c(C)c4CCC(=O)O)c(CCC(=O)O)c3C.[Fe+2]` [Heme], the aqueous solubility [1] is listed as “insoluble in aqueous solution”.

For “bevacizumab: a monoclonal antibody that inhibits VEGF-A”, the “tubule formation in HUVECs” value (HUVECs) was “significant decrease”.
